From patent publication US5385932A, “HMG-COA reductase inhibitor metabolites” (Merck & Co., Inc., priority 1992, dated 1995)

Assays:
HMG--CoA reductase = biological target: T1, HMG--CoA reductase (Rattus norvegicus, UniProt P51639); experiment: intrinsic HMG-CoA reductase inhibition, in vitro protocol after alkaline hydrolysis of the lactone ring; format: biochemical; settings: relative inhibitory potency from IC50 values; lactone ring opened by alkaline hydrolysis; lovastatin (hydroxy acid form) assigned 100
T1 construct: from tissue
T1 sequence (P51639 1-887): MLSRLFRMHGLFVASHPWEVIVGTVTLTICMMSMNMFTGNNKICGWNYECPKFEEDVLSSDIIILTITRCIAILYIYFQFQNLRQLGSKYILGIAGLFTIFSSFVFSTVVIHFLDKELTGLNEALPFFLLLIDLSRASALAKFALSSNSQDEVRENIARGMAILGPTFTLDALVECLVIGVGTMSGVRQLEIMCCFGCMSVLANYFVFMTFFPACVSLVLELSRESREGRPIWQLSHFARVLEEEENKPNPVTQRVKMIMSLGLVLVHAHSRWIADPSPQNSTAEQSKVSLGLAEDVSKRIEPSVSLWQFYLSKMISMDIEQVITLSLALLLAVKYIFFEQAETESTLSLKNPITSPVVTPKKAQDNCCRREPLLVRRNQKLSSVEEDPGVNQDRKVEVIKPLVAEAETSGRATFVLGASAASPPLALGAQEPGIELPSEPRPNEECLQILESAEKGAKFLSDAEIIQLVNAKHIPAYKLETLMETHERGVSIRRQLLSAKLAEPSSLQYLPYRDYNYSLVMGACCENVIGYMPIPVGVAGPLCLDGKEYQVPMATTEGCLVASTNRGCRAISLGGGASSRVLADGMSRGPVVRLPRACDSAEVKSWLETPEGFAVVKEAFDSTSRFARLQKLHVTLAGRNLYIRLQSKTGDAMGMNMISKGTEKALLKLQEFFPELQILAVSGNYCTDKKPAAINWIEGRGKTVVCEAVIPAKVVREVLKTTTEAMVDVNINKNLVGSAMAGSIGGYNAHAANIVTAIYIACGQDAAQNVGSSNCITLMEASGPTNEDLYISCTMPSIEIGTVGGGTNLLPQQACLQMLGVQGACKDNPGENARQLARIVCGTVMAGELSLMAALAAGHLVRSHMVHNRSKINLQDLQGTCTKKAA
Procedure: After alkaline hydrolysis of the lactone ring the intrinsic HMG--CoA reductase inhibition activity was measured in an vitro protocol based on a method published in Proc. Natl. Acad. Sci. U.S.A. 77, 3957-3961 (1980).
The IC50 value of the test compound was compared with that of its parent determined simultaneously. For estimation of relative inhibitory potencies, lovastatin (in the form of its hydroxy acid) was assigned a value of 100.

[1] = incubation of 14C-labelled compound with rat liver microsomes, HPLC analysis of the label; format: in vitro ADME; settings: rat liver microsomes with NADPH and MgCl2, pH 7.4, 37°
Procedure: Rat liver tissue (55.6 g) was homogenized in 0.05M Tris -1.15% KCl buffer at pH 7.5 (100 ml). The homogenates were centrifuged at 10,000 RPM for 20 '. The supernatants were filtered through glass wool and then centrifuged as 100,000 g for 90'. After the supernatant was discarded the pellet was suspended in 10 mM EDTA -1.15% KCl (100 ml) and recentrifuged at 100,000 g for 90 minutes. The supernatant was discarded and the pellet was resuspended in 0.25M sucrose (15 ml). Microsomes were stored at -80° under N2. Protein concentration (as determined by Biuret reaction) was 40 mg/ml of final suspension.
[^14 C] 6(R)-[2-[8(S)-(2,2-dimethylbutyryloxy)-2(S)-methyl-5(R)-hydroxy-6(S)-methyl-1,2,3,4, 4a(R),5,6,7,8,Sa(R)-decahydronaphthyl-1(S)]ethyl]-4(R)-hydroxy-3,4,5,6,-tetrahydro-2H-pyran-2-one (compound A)(40 μg) in 20 λ of DMSO was placed in a tube with rat liver microsomes (1 mg in 100 μl of broth) Mg Cl2 (30 μl of a 0.1M solution), NADPH (50 μl of a 0.01M solution) and phosphate buffer (100 λ of a.1M solution, pH 7.4).
Twenty five such tubes were incubated at 37° in a water bath, for 30 minutes. Acetone (1 ml) was added to each tube, followed by ethyl acetate (5 ml). The ethyl acetate was evaporated and the residue was reconstituted in methanol and fractionated by HPLC. […]

[2] = stability of the free dihydroxy acid on standing; format: physicochemical; settings: on standing at room temperature; acid form can be maintained by increasing the pH above 7.0
Procedure: The sodium salt of the compound II from Example 4 is dissolved in 2 ml of ethanol-water (1:1; v:v) and added to 10 ml of 1N hydrochloric acid from which the dihydroxy acid is extracted with ethyl acetate. The organic extract is washed once with water, dried (Na2 SO4), and evaporated in vacuo with a bath temperature not exceeding 30° C. […] The dihydroxy acid form can be maintained by increasing the pH above 7.0.

Which “Potency (Relative to Lovastatin = 100)” value (HMG--CoA reductase) does the source give for `CCC(C)(C)C(=O)O[C@H]1C[C@](C)(O)[C@@H](O)[C@@H]2CC[C@H](C)[C@H](CC[C@@H]3C[C@@H](O)CC(=O)O3)[C@H]21` [6(R)-[2-[8(S)-(2,2-dimethylbutyryloxy)-2(S)-methyl-5(S),6(S)-dihydroxy-6(S)-methyl-1,2,3,4, 4a (R),5,6,7,8,8a (R)-decahydronaphthyl-1(S)]ethyl]-4(R)-hydroxy-3,4,5,6-tetrahydro-2H-pyran-2-one] here?
Its value is 40.

For `CCC(C)(C)C(=O)O[C@H]1C[C@](C)(O)C[C@@H]2CC[C@H](C)[C@H](CC[C@@H]3C[C@@H](O)CC(=O)O3)[C@H]21` [6(R)-[2-[8(S)-(2,2-dimethylbutyryloxy)-2(S),6(R)-dimethyl-6(R)-hydroxy-1,2,3,4,4a (R),5,6,7,8,8a (R)-decahydronaphthyl-1(S)]ethyl]-4(R)-hydroxy-3,4,5,6-tetrahydro-2H-pyran-2-one], which “Potency (Relative to Lovastatin = 100)” value (HMG--CoA reductase) is on record?
Its value is 2.

For `CCC(C)(C)C(=O)O[C@H]1C[C@@H](C)C[C@@H]2CC[C@H](C)[C@H](CC[C@@H]3C[C@@H](O)CC(=O)O3)[C@H]21` [compound B, 6(R)-[2-[8(S)-(2,2-dimethylbutyryloxy)-2(S),6(R)-dimethyl-1,2,3,4,4a(R),5,6,7,8, 8a(R)-decahydronaphthyl-1(S)]ethyl]-4(R)-hydroxy-3,4,5,6-tetrahydro-2H-pyran-2-one], which remaining at 1 h ([1]; 60 minutes, methyl-t.butyl ether extract, read-out: label in the extract that was unchanged starting material) is on record?
Its remaining at 1 h is 66%.

For `CCC(C)(C)C(=O)O[C@H]1C[C@](C)(O)[C@@H](O)[C@@H]2CC[C@H](C)[C@H](CC[C@@H](O)C[C@@H](O)CC(=O)O)[C@H]21` [Example 10], which “stability of dihydroxy acid form (reversion to lactone)” value [2] is on record?
Its value is “slowly reverts to the corresponding parent lactone”.

Which remaining at 0.5 h ([1]; 30 minutes, ethyl acetate extract, read-out: label representing unchanged starting material) does the source give for `CCC(C)(C)C(=O)O[C@H]1C[C@@H](C)[C@@H](O)[C@@H]2CC[C@H](C)[C@H](CC[C@@H]3C[C@@H](O)CC(=O)O3)[C@H]21` [compound A, 6(R)-[2-[8(S)-(2,2-dimethylbutyryloxy)-2(S)-methyl-5(R)-hydroxy-6(S)-methyl-1,2,3,4, 4a(R),5,6,7,8,Sa(R)-decahydronaphthyl-1(S)]ethyl]-4(R)-hydroxy-3,4,5,6,-tetrahydro-2H-pyran-2-one] here?
The remaining at 0.5 h was 52%.
